Data set [1] has as its system Botrytis cinerea. As to the kind of experiment: B-11. Botrytis cinerea in vitro cell test. The following applies: 144 h, 20 ppm of active ingredient, 6 days incubation, liquid culture, absorbance, read-out: efficacy (inhibition of fungal growth). It is filed as cell-based. A digest of the protocol: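 B. cinerea spores were grown in liquid culture with compound (DMSO ≤1% final). Mycelium growth was measured spectrometrically after 6 days, with inhibition taken as absorbance relative to untreated control wells.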

Data set [2] has as its system Colletotrichum lindemuthianum. As to the kind of experiment: B-8. Colletotrichum lindemuthianum in vitro cell test. It counts as cell-based. To be noted: 144 h, 20 ppm of active ingredient, 6 days incubation, liquid culture, absorbance, read-out: efficacy (inhibition of fungal growth). The gist of the method: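 Liquid-culture germination/growth test: compounds in ≤1% final DMSO were added to spore-containing medium. Fungal growth was quantified spectrophotometrically after 6 days of incubation and expressed as inhibition versus untreated controls.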

Data set [3] can be described thus: Measurement of Log P values by HPLC on reversed phase columns (EEC directive 79/831 Annex V.A8). It is filed as physicochemical. To be noted: reversed phase HPLC column, method [a]: LC-UV, acidic range, 0.1% formic acid in water and acetonitrile as eluent. The gist of the method:
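Log P derived from retention on reversed-phase columns (EEC directive 79/831 Annex V.A8), LC-UV, acetonitrile gradient 10% to 95% against water containing 0.1% formic acid, 0.001 M ammonium acetate, or 0.1% phosphoric acid; several values per method separated by "+".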

In a further data set the test system is Pyrenophora teres. As to the kind of experiment: B-10. Pyrenophora teres in vitro cell test. It counts as cell-based. To be noted: 144 h, 20 ppm of active ingredient, 6 days incubation, liquid culture, absorbance, read-out: efficacy (inhibition of fungal growth). The gist of the method:
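Liquid-culture assay on a P. teres spore suspension with compounds added to the medium from DMSO solutions, final DMSO ≤1%. Mycelium growth read spectrometrically after 6 days. Inhibition calculated from absorbance against untreated control wells.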

The test system of the next data set is Alternaria alternata. As to the kind of experiment: Alternaria alternata in vitro cell test. The following applies: 120 h, 20 ppm of active ingredient, liquid culture, 5 days incubation, spectrometric measurement of mycelium growth, read-out: efficacy (inhibition of fungal growth). It counts as cell-based. The gist of the method: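 Spectrometric readout of mycelial growth after 5-day incubation gauged compound effects on spore germination and growth of A. alternata in liquid medium. Compounds were delivered in DMSO at ≤1% final. Absorbance was compared with untreated controls to give inhibition.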

In a further data set the test system is Septoria tritici. As to the kind of experiment: B-9. Septoria tritici in vitro cell test. The following applies: Zymoseptoria tritici, 168 h; 20 ppm of active ingredient; 7 days incubation; liquid culture, absorbance; read-out: efficacy (inhibition of fungal growth). It is filed as cell-based. How it is done: B-9. Septoria tritici In Vitro Cell Test [table] Fungicides were solubilized in DMSO and the solution used to prepare the required range of concentrations. The final concentration of DMSO used in the assay was ≤1%. A spore suspension of S. tritici was prepared and diluted to the desired spore density. Fungicides were evaluated for their ability to inhibit spore germination and mycelium growth in liquid culture assay. The compounds were added in the desired concentration to the culture medium with spores. After 7 days incubation, fungi-toxicity of compounds was determined by spectrometric measurement of mycelium growth. Inhibition of fungal growth was determined by comparing the absorbance values in wells containing the fungicides with the absorbance in control wells without fungicides.

The test system of data set [4] is Botrytis cinerea. As to the kind of experiment: In vivo preventive test on Botrytis cinerea (grey mould). To be noted: 500 ppm of active ingredient, preventive spray on gherkin or cabbage, evaluated 4 to 5 days after inoculation, read-out: efficacy. A digest of the protocol:
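Preventive spray on cabbage or gherkin seedlings, with compound formulated in DMSO/acetone/Tween 80 and water-diluted, preceded spore inoculation by 24 hours. Cabbage was held 4 to 5 days at 20° C., 100% relative humidity; gherkin 4 to 5 days at 17° C., 90% relative humidity.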

In another data set the test system is Sphaerotheca fuliginea. As to the kind of experiment: In vivo preventive test on Sphaerotheca fuliginea (powdery mildew on cucurbits). The following applies: Podosphaera fuliginea, 192 h; 500 ppm of active ingredient; preventive spray on gherkin; evaluated 8 days after inoculation; read-out: efficacy. The gist of the method: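 This is a preventive spray test on gherkin seedlings, with compound formulated in DMSO/acetone/Tween 80 in water and solvent-only controls. Spore inoculation followed one day after treatment. Incubation lasted 8 days at 20 °C, 70–80% RH.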

The test system of data set [5] is Colletotrichum lindemuthianum. As to the kind of experiment: In vivo preventive test on Colletotrichum lindemuthianum (leaf spot on bean). The following applies: 168 h, 500 ppm of active ingredient, preventive spray on bean, evaluated 7 days after inoculation, read-out: efficacy. A digest of the protocol: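 Young bean plants sprayed with compound in DMSO/acetone/Tween 80 diluted in water; solvent-only controls. Inoculated 24 h later with C. lindemuthianum spore suspension, then kept 24 h at 20 °C/100% RH and 6 days at 20 °C/90% RH.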

A further data set has as its system Alternaria brassicae. In words: In vivo preventive test on Alternaria brassicae (leaf spot on radish or cabbage). The following applies: 500 ppm of active ingredient, preventive spray on radish or cabbage, evaluated 3 to 4 days after inoculation, read-out: efficacy. The gist of the method:
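Protective spray on young radish or cabbage: actives in water diluted from DMSO/acetone/Tween 80, with solvent-only controls. Leaves were challenged after 24 h with a spore suspension, and plants were held at 100% RH, 20 °C for 3 to 4 days.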

What is called inhibition is the drop in the measured response relative to a control, in per cent. Broadly, the chromatographic logP is lipophilicity estimated from chromatographic retention. Low values mean a more hydrophilic compound, high ones a more lipophilic compound.

As for `Cc1ccc([C@@H](F)CNC(=O)c2c(Oc3cccc(C(F)(F)F)c3)nnc3c2OCC(C)(C)CO3)c(C)c1` (racemic) [I-156], the inhibition at 20 ppm (in the data set on Botrytis cinerea [1]; in data set [2]; with Pyrenophora teres; with Alternaria alternata; in the data set with Septoria tritici) was 90 to 100% in each case. For the same compound, in data set [3], the chromatographic logP amounted to 4.15.
`Cc1ccc(CCNC(=O)c2c(Oc3cccc(C(F)(F)F)c3)cnc3ccccc23)c(C)c1` [I-002]: the inhibition at 20 ppm (in the data set on Botrytis cinerea [1]; in data set [2]; in the data set on Alternaria alternata; with Septoria tritici) was 90 to 100% in each case. The pest or weed control at 500 ppm in the data set on Botrytis cinerea [4] and with Sphaerotheca fuliginea was 90 to 100% in each case. This compound gave a chromatographic logP in data set [3] of 4.17.
`O=C(NCCc1ncc(Cl)cn1)c1c(Oc2cccc(C(F)(F)F)c2)nnc2ccccc12` [I-077]: the inhibition at 20 ppm (in the data set with Botrytis cinerea [1]; in data set [2]; in the data set with Pyrenophora teres; in the data set on Alternaria alternata; in the data set on Septoria tritici) was 90 to 100% throughout. Also, the values for the pest or weed control at 500 ppm (in the data set with Botrytis cinerea [4]; in [5]; in the data set with Alternaria brassicae) were 90 to 100%, 70 to 79% and 90 to 100%, respectively. In data set [3], the chromatographic logP is 2.91.
With `O=C(NCCc1ccc2c(c1)CCO2)c1c(Oc2cccc(C(F)(F)F)c2)nnc2ccccc12` [I-081], the inhibition at 20 ppm in the data set with Botrytis cinerea [1] fell in the range of 90 to 100%; in [2], 90 to 100%; in the data set on Pyrenophora teres, 90 to 100%; in the data set on Alternaria alternata, 90 to 100%; in the data set on Septoria tritici it was 70 to 79%. The pest or weed control at 500 ppm (with Botrytis cinerea [4]; in [5]; in the data set with Alternaria brassicae) was 90 to 100% each time. In data set [3], this compound yielded a chromatographic logP of 3.53.
For the compound `O=C(NOCc1ccc(C(F)(F)F)cc1)c1c(Oc2cccc(C(F)(F)F)c2)nnc2ccccc12` [I-089], the inhibition at 20 ppm with Botrytis cinerea [1] lay in the range of 90 to 100%; in data set [2], 90 to 100%; with Pyrenophora teres, 90 to 100%; with Alternaria alternata it was 90 to 100%; in the data set on Septoria tritici, 80 to 89%. The pest or weed control at 500 ppm with Botrytis cinerea [4] is 70 to 79%; in the data set with Alternaria brassicae, 90 to 100%. The same compound had a chromatographic logP in data set [3] of 3.42.
As for `Cc1ccc(C(F)(F)CNC(=O)c2c(Oc3cccc(C4CC4)c3F)cnc3nccnc23)c(C)c1` [I-099], the inhibition at 20 ppm was in the range of 90 to 100% in the data set on Botrytis cinerea [1]; 90 to 100% in data set [2]; 90 to 100% in the data set with Pyrenophora teres; 90 to 100% in the data set on Alternaria alternata; 80 to 89% in the data set with Septoria tritici. The pest or weed control at 500 ppm (in the data set with Botrytis cinerea [4]; in data set [5]; with Alternaria brassicae) was 90 to 100% throughout. This compound had a chromatographic logP in data set [3] of 3.71.
Turning to `O=C(NCC(F)(F)c1ccc(Cl)cc1)c1c(Oc2cccc(C(F)F)c2)nnc2c1CCCC2` [I-120], the inhibition at 20 ppm in the data set on Botrytis cinerea [1] lay in the range of 90 to 100%; in data set [2], 90 to 100%; in the data set with Pyrenophora teres it was 90 to 100%; with Alternaria alternata, 90 to 100%; with Septoria tritici it was 80 to 89%. The chromatographic logP in data set [3] is 3.37.
With `Cc1ccc(C(F)(F)CNC(=O)c2c(Oc3cccc(C(F)(F)F)c3)nnc3c2COCC3)c(C)c1` [I-122], the inhibition at 20 ppm (in the data set with Botrytis cinerea [1]; in data set [2]; in the data set on Pyrenophora teres; with Alternaria alternata; in the data set on Septoria tritici) was 90 to 100% throughout. For the same compound, the pest or weed control at 500 ppm in the data set with Botrytis cinerea [4] was 90 to 100%; with Sphaerotheca fuliginea, 90 to 100%; in [5], 80 to 89%; in the data set with Alternaria brassicae, 90 to 100%. The compound also came in with a chromatographic logP in data set [3] of 3.7.
In the case of `Cc1ccc(C(F)CNC(=O)c2c(Oc3cccc(C(F)(F)F)c3)nnc3c2CCC3)c(C)c1` (stereo not drawn) [I-138], the inhibition at 20 ppm (with Botrytis cinerea [1]; in data set [2]; in the data set on Pyrenophora teres; in the data set with Alternaria alternata; in the data set on Septoria tritici) was 90 to 100% throughout. For the same compound, the chromatographic logP in data set [3] stood at 3.84.
`Cc1cc(Cl)ccc1C(F)(F)CNC(=O)c1c(Oc2cccc(C(F)F)c2)nnc2c1CCCC2` [I-163]: the inhibition at 20 ppm (in the data set with Botrytis cinerea [1]; in data set [2]; with Pyrenophora teres; in the data set on Alternaria alternata; in the data set on Septoria tritici) was 90 to 100% in each case.
Consider `O=C(NCC(F)c1ccc(Cl)cc1Cl)c1c(Oc2cccc(C(F)F)c2)nnc2c1CCCC2` (stereo not drawn) [I-177], for which the inhibition at 20 ppm (in the data set with Botrytis cinerea [1]; in data set [2]; with Pyrenophora teres; in the data set on Alternaria alternata; with Septoria tritici) was 90 to 100% each time. This compound gave a chromatographic logP in [3] of 3.63.
In the case of `O=C(NCC(F)c1ccc(Cl)cc1Cl)c1c(Oc2cccc(Cl)c2)nnc2c1CCCC2` (stereo not drawn) [I-179], the inhibition at 20 ppm (in the data set with Botrytis cinerea [1]; in data set [2]; in the data set on Pyrenophora teres; in the data set on Alternaria alternata; with Septoria tritici) was 90 to 100% each time. The compound also gave a chromatographic logP in data set [3] of 3.89.
`Cc1ccc(C(F)CNC(=O)c2c(Oc3cccc(Cl)c3)nnc3c2CCCC3)c(C)c1` (stereo not drawn) [I-233]: the inhibition at 20 ppm (in the data set on Botrytis cinerea [1]; in data set [2]; with Pyrenophora teres; in the data set with Alternaria alternata; in the data set on Septoria tritici) was 90 to 100% each time. The chromatographic logP in data set [3] was determined as 3.73.
Turning to `Cc1ccc(C(F)(F)CNC(=O)c2c(Oc3cccc(Cl)c3)cnc3nccnc23)c(C)c1` [I-234], the inhibition at 20 ppm (in the data set with Botrytis cinerea [1]; in data set [2]; with Pyrenophora teres; with Alternaria alternata; in the data set with Septoria tritici) was 90 to 100% in each case. In addition, the pest or weed control at 500 ppm with Botrytis cinerea [4] fell in the range of 90 to 100%; in data set [5], 80 to 89%; in the data set with Alternaria brassicae it was 90 to 100%. Besides, the chromatographic logP in [3] is 3.37.
Turning to `Cc1ccc(C(F)(F)CNC(=O)c2c(Oc3cccc(Br)c3)cnc3nccnc23)c(C)c1` [I-241, 7-(3-bromophenoxy)-N-[2-(2,4-dimethylphenyl)-2,2-difluoro-ethyl]pyrido[2,3-b]pyrazine-8-carboxamide], the inhibition at 20 ppm (with Botrytis cinerea [1]; in [2]; with Pyrenophora teres; in the data set with Alternaria alternata; in the data set with Septoria tritici) was 90 to 100% each time. The pest or weed control at 500 ppm (with Botrytis cinerea [4]; in data set [5]; in the data set with Alternaria brassicae) was 90 to 100% each time. The compound further came in with a chromatographic logP in [3] of 3.46.

The values are drawn from patent US20230192617A1, “AZABICYCLIC(THIO)AMIDES AS FUNGICIDAL COMPOUNDS” (Bayer CropScience Aktiengesellschaft, priority 2020, published 2023).
